Here are results for 2 molecules from US20200061026A1, “METHODS AND COMPOSITIONS FOR PREVENTING VECTOR-BORNE DISEASE TRANSMISSION” (The Scripps Research Institute, priority 2016, published 2020).

“And” between values parts separate entries of the source, which are not always exact repeats. Equal values may be shown once. Read-outs that look alike come from different tables or passages of the source.

In data set [1] the test system is various Anopheles and Aedes mosquitos. As to the kind of experiment: Membrane feeding, all Anopheles and Aedes strains tested. The data set is classed as in vivo. Particulars: read-out: IC50 values, range against all strains tested. On the procedure:
(§1) Isoxazoline compounds fluralaner or afoxolaner were reconstituted in 50% human serum and 50% red blood cells and administered to adult Anopheles stephensi mosquitos via standard membrane feeding. Lethality was assessed 1, 2 or 8 days after exposure. FIG. 2A represents a plot of viable Anopheles stephensi versus fluralaner concentration at each day of assessment. FIG. 2B represents a plot of viable Anopheles stephensi versus afoxolaner concentration at each day of assessment. […] The IC50 values of each compound for Anopheles death were determined by logistic regression using a least squares method to find the best fit and are shown in Table 1. IC50 values were calculated by applying a four-parameter logistic regression model using a least-squares method to find the best fit using the Graphpad Prism 5.0 software package.

A short description of data set [2]: Dog pharmacokinetics, single oral dose. In kind it is in vivo. Particulars: level at Day 45.
Another data set concerns Anopheles stephensi. Kind of data set: Standard membrane feeding assay, Anopheles stephensi. The data set is classed as in vivo. Particulars: for IC50: Anopheles stephensi; for killing of mosquitos (in words): lethality 1, 2 or 8 days after exposure; for whole blood IC99: mosquitocidal. As for the experimental part:
Mosquito colonies utilized in the examples were generally maintained as described: The colony of Anopheles stephensi (Sind-Kasur Nijmegen strain) was maintained at the Radboud University Medical Center, Nijmegen, The Netherlands, by 30° C. and 70-80% humidity and on a 12/12 hour day/night cycle. The Anopheles gambiae strains Kisumu and Tiassalé and the Aedes aegypti strains New Orleans and Cayman were reared at the Liverpool Insect Testing Establishment, Liverpool, UK. Kisumu is an insecticide susceptible lab strain. New Orleans was originally colonized by the Centers for Disease Control and Prevention. The Tiassalé strain was colonized from Southern Cote D'Ivoire where resistance to all classes of insecticide is found and the Cayman strain was colonized from Grand Cayman, where Aedes aegypti are highly resistant to DDT and pyrethroid insecticides. Both resistant strains are routinely selected with insecticides to ensure the maintenance of resistance, 0.75% permethrin for Cayman and 0.05% deltamethrin for Tiassalé, and profiled for resistance to a range of insecticides, including 4% dieldrin, to which Tiassalé is resistant but Cayman is susceptible.
as §1
FIG. 2C represents a plot of viable Anopheles stephensi versus fluralaner concentration at each time of assessment. FIG. 2D represents a plot of viable Anopheles stephensi versus afoxolaner concentration at each time of assessment. FIG. 2E represents plots of viable Anopheles stephensi versus concentration of (S)- and (R)-enantiomers of afoxolaner at each time of assessment. […] The IC50 (M) concentrations are also shown for FIGS. 2C and 2D.

Data set [3] has as its system Aedes aegypti (New Orleans). Kind of data set: Membrane feeding, Aedes aegypti New Orleans strain. The data set is classed as in vivo. Particulars: read-out: IC50 [95% CI].
A further data set can be described thus: Plasma stability, mouse. The data set is classed as in vitro ADME. Particulars: mouse (ms). An excerpt: (§2) The stability of compounds in mouse (ms), rat (r), dog (d), cynomolgus monkey (cy), and human (hu) plasma is shown in Table 10 by the percentages of compounds remaining at two hours.
A short description of data set [4]: Further in vitro degradation assay, rat primary hepatocytes. On the procedure:
(§3) In a further assay, isoxazolines (fluralaner and afoxolaner) and control compounds (7-Ethoxycoumarin and 7-Hydroxycoumarin [Sigma]) were dissolved in DMSO at 10 and 30 mM respectively, then diluted first 20-fold with 45% methanol in water and a further 10-fold in pre-warmed Williams' Medium E. Cryopreserved human, dog and rat hepatocytes (In Vitro Technologies) were thawed, isolated by percoll gradient and suspended in Williams' Medium E. Cells were then dispensed into the wells of 96-well plates containing 10 μL of diluted compounds, to reach a final concentration of 0.5×10^6 cells/mL and 1 μM of isoxazolines or 3 μM of control. After an incubation at 37° C. of 0, 15, 30, 60 or 90 minutes, the reaction was stopped with acetonitrile. The samples were then shaken for 10 minutes at 500 rpm and centrifuged at 3220 g for 20 minutes. Supernatants were transferred and stored at 4° C. until LC-MS-MS analysis.

The nature of data set [5]: Plasma stability, cynomolgus monkey. The data set is classed as in vitro ADME. Particulars: cynomolgus monkey (cy).
Text: as §2

The nature of another data set: Plasma stability, dog. The data set is classed as in vitro ADME. Particulars: dog (d).
Text: as §2

Data set [6] can be described thus: Further in vitro degradation assay, dog primary hepatocytes. As for the experimental part: as §3
The nature of another data set: Plasma stability, human. Particulars: human (hu). In kind it is in vitro ADME.
Text: as §2

Another data set deals with Anopheles mosquitos. Kind of data set: Lethal duration estimated by extrapolating published Beagle dog PK curves to killing concentrations. From the text: Data for fluralaner in Beagle dogs was obtained from Walther et al., Parasites & Vectors 8:508. Data from afoxolaner in Beagle dogs was obtained from Letendre et al., Veterinary Parasitology, 201, 190-197.
The lethal duration of fluralaner and afoxolaner was estimated by extrapolating pharmacokinetic curves from published studies in Beagle dogs to the killing concentrations determined by the membrane feeding studies described in Example 2. Data for fluralaner in Beagle dogs was obtained from Walther et al., Parasites & Vectors 8:508. Data from afoxolaner in Beagle dogs was obtained from Letendre et al., Veterinary Parasitology, 201, 190-197. A mathematical model was used to estimate the impact of these compounds on Anopheles stephensi mosquito survival.

A further data set in a line: Plasma stability, rat. Particulars: rat (r). The data set is classed as in vitro ADME.
Text: as §2

Take `O=C(CNC(=O)c1ccc(C2=NO[C@](c3cc(Cl)cc(C(F)(F)F)c3)(C(F)(F)F)C2)c2ccccc12)NCC(F)(F)F` (racemic) [Afoxolaner, afoxolaner]: the half-inhibitory concentration (IC50) was 90 to 107 nM in [1]; 107 nM in the data set on Anopheles stephensi (24 h, read-out: IC50 (Anopheles death)); 107 nM with Anopheles stephensi (24 h, read-out: IC50 [95% CI]); 34 nM in the data set on Anopheles stephensi (48 h, read-out: IC50 (Anopheles death)); 14 nM with Anopheles stephensi (192 h, read-out: IC50 (Anopheles death)); 100 nM in [3] (24 h). In addition, in data set [2], the “Dog PK (PO)” value is reported as roughly 600 nM at Day 45. Moreover, the “killing of mosquitos (in words)” value with Anopheles stephensi was “effective at killing the mosquitos in a dose-dependent manner”. Further, in the data set with Anopheles stephensi, the “whole blood IC99” value was 233 nM and 146 ng/mL. The “Plasma stability % remaining @ 2 h” value in the data set “Plasma stability, mouse” is 83% (ms);; in data set [5] it was 84% (cy);; in the data set “Plasma stability, dog” it was 100% (d);; in “Plasma stability, human” it was 84% (hu); in the data set “Plasma stability, rat”, 61% (r);. The half-life in data set [4] (hepatocytes) and in data set [6] (hepatocytes) was greater than 217 min in each case. Besides, the hepatocyte CLint in [4] (hepatocytes) and in data set [6] (hepatocytes) was less than 6.4 µL/min/1e6 cells each time. The “time the concentration is above lethal level” value is reported as 43 days in the data set with Anopheles mosquitos (1 mg/kg) and 72 days in the data set with Anopheles mosquitos (4 mg/kg).
Consider `Cc1cc(C2=NO[C@](c3cc(Cl)cc(Cl)c3)(C(F)(F)F)C2)ccc1C(=O)NCC(=O)NCC(F)(F)F` [Fluralaner, fluralaner], for which the IC50 in [1] (twenty-four hours after the blood meal) is 33 to 56 nM; in the data set on Anopheles stephensi (24 h, 1 day after exposure, read-out: IC50 (Anopheles death)) it was 54 nM; in the data set on Anopheles stephensi (48 h, 2 days after exposure, read-out: IC50 (Anopheles death)) it was 42 nM; with Anopheles stephensi (192 h, 8 days after exposure, read-out: IC50 (Anopheles death)), 37 nM; in the data set on Anopheles stephensi (24 hours after the blood meal, read-out: IC50 [95% CI]), 56 nM; in data set [3] (24 hours after the blood meal, New Orleans strain), 34.2 nM. Besides, the “killing of mosquitos (in words)” value in the data set with Anopheles stephensi was “effective at killing the mosquitos in a dose-dependent manner”. The “whole blood IC99” value with Anopheles stephensi is 119 nM and 66 ng/mL. Moreover, the half-life in data set [4] (cryopreserved hepatocytes) and in data set [6] (cryopreserved hepatocytes) was greater than 217 min in each case. Also, the hepatocyte CLint in data set [4] (cryopreserved hepatocytes) and in [6] (cryopreserved hepatocytes) was less than 6.4 µL/min/1e6 cells each time. Also, in the data set with Anopheles mosquitos (dose of 56 mg/kg), the “time the concentration is above the level lethal to Anopheles mosquitos” value was 72 days.
